Target: T1, Dual specificity protein kinase TTK (Homo sapiens, UniProt P33981)
T1 sequence (P33981 whole entry): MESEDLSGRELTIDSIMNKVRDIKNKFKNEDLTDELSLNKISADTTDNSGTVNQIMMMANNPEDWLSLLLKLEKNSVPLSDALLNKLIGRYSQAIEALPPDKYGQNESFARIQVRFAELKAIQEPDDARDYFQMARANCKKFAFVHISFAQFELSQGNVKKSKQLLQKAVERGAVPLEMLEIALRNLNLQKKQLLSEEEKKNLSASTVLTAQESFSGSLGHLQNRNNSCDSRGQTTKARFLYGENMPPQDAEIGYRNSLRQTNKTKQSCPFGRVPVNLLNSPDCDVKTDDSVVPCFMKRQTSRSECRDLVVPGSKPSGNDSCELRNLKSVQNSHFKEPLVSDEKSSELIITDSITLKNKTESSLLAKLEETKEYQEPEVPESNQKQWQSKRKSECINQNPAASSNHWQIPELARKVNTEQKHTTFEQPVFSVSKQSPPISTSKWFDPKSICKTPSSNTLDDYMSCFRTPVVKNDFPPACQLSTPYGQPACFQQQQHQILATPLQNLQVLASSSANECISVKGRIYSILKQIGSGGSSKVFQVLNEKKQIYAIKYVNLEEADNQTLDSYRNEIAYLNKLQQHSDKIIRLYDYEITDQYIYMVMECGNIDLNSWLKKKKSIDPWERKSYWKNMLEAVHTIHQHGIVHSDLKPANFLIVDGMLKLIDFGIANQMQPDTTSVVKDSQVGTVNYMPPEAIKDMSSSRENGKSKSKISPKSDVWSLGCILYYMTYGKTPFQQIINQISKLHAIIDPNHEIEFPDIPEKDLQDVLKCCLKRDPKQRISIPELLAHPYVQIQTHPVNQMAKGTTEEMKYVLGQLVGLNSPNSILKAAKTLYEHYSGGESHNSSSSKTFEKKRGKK
Experiment: The concentration of Mps-1 in the assay was adjusted to the activity of the enzyme lot and was chosen appropriate to have the assay in the linear range, typical enzyme concentrations were in the range of about 1 nM (final conc. in the 5 μl assay volume).

In the case of `COc1cc(C(=O)N2CC3(COC3)C2)ccc1Nc1nc2ccc(-c3ccc(C(=O)NCc4ccc(F)cc4)nc3)cn2n1`, the IC50 is reported as under 1 nM.

Source: ChEMBL document CHEMBL5725462, “Substituted triazolopyridines” (2017)
